The text below walks through data of patent US6780994B2, “Phthalimido arylpiperazines useful in the treatment of benign prostatic hyperplasia” (Ortho-McNeil Pharmaceutical, Inc., priority 1998, dated 2004).

Assay [1] has as its target T1, α1b-AR (Homo sapiens, UniProt P35368).
T1 construct: expressed in transfected cells; host or cells: COS cells, pcDNA3 vector, transient DEAE-dextran transfection
T1 sequence (P35368 1-520): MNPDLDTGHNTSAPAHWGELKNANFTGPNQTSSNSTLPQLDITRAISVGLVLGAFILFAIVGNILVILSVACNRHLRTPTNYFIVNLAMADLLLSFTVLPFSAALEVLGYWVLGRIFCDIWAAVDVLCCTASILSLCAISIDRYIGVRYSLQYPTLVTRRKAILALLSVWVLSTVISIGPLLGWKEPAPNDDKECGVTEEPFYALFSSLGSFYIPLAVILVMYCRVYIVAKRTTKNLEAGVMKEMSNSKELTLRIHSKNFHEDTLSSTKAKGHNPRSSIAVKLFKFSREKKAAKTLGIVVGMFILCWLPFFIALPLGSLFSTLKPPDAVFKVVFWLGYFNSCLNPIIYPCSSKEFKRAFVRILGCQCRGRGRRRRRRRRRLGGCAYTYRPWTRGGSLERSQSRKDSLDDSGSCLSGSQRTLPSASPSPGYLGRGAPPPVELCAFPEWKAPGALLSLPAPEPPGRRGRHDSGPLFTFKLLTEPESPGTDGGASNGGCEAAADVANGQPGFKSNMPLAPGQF
Kind of assay: radioligand ([125I]-HEAT) receptor binding assay, COS cell membranes expressing cloned receptor. Conditions: [125I]-HEAT 50 pM, 1 hour room temperature. The text has this:
(§1) The first assay tested the ability of compounds of Formula I to bind to membrane bound receptors α1a-AR, α1b-AR and α1d-AR.
(§2) The DNA sequences of the three cloned human α1-AR subtypes have been published. […] We used published DNA sequence information to design primers for use in RT-PCR amplification of each subtype to obtain cloned cDNAs. Human poly A+ RNA was obtained from commercially available sources and included hippocampus and prostate samples, sources which have been cited in the literature. For the primary screen a radioligand binding assay was used which employed membrane preparations from cells expressing the individual cloned receptor cDNAs. Radiolabeled ligands with binding activity on all three subtypes (non-selective) are commercially available ([125I]-HEAT, [3H]-prazosin). Each α1 receptor subtype was cloned from poly A+ RNA by the standard method of reverse transcription-polymerase chain reaction (RT-PCR). The following sources of polyA+ RNA were used for the cloning of the α1 receptor subtypes: α1a-AR, human hippocampus and prostate, α1b-AR, human hippocampus, α1d-AR, human hippocampus. The resulting cDNAs were cloned into the pcDNA3 mammalian expression vector (Invitrogen Corp., San Diego Calif.). Each DNA was sequenced for verification and to detect any possible mutations introduced during the amplification process. Any deviation in sequence from the published consensus for each receptor subtype was corrected by site-directed mutagenesis.
(§3) The three α1-AR subtypes (a, b, d) were transfected into COS cells using a standard DEAE-dextran procedure with a chloroquine shock. In this procedure, each tissue culture dish (100 mm) was inoculated with 3.5×10^6 cells and transfected with 10 μg of DNA. Approximately 72 hours post-transfection, the cells were harvested and COS membranes were prepared. Transfected COS cells from 25 plates (100 mm) were scraped and suspended in 15 mL of TE buffer (50 mM Tris-HCl, 5 mM EDTA, pH 7.4). The suspension was disrupted with a homogenizer. It was then centrifuged at 1000× g for 10 minutes at 4° C. The supernatant was centrifuged at 34,500× g for 20 minutes at 4° C. The pellet was resuspended in 5 mL TNE buffer (50 mM Tris-HCl, 5 mM EDTA, 150 mM NaCl, pH 7.4). The resulting membrane preparation was aliquoted and stored at −70° C. The protein concentration was determined following membrane solubilization with TritonX-100.
(§4) The ability of each compound to bind to each of the α1-AR subtypes was assessed in a receptor binding assay. [125I]-HEAT, a non-selective α1-AR ligand, was used as the radiolabeled ligand. Each well of a 96-well plate received: 140 μL TNE, […] [125I]-HEAT diluted in TNE (50,000 cpm; final concentration 50 pM), 10 μL test compound diluted in DMSO (final concentration 1 pM-10 μM), […] COS cell membrane preparation expressing one of the three α1-AR subtypes (0.05-0.2 mg membrane protein). The plate was incubated for 1 hour at room temperature and the reaction mixtures were filtered through a Packard GF/C Unifilter filter plate. The filter plate was dried for 1 hour in a vacuum oven. Scintillation fluid ([…]) was added to each well, and the filter plate was counted in a Packard Topcount scintillation counter. Data was analyzed using GraphPad Prism software.
(§5) Tables A through D list the IC50 values expressed in nanomolar concentration for select compounds of the invention in all receptor subtypes.

The target of assay [2] is T2, α1d-AR (Homo sapiens, UniProt P25100).
T2 construct: expressed in transfected cells; host or cells: COS cells, pcDNA3 vector, transient DEAE-dextran transfection
T2 sequence (P25100 1-572): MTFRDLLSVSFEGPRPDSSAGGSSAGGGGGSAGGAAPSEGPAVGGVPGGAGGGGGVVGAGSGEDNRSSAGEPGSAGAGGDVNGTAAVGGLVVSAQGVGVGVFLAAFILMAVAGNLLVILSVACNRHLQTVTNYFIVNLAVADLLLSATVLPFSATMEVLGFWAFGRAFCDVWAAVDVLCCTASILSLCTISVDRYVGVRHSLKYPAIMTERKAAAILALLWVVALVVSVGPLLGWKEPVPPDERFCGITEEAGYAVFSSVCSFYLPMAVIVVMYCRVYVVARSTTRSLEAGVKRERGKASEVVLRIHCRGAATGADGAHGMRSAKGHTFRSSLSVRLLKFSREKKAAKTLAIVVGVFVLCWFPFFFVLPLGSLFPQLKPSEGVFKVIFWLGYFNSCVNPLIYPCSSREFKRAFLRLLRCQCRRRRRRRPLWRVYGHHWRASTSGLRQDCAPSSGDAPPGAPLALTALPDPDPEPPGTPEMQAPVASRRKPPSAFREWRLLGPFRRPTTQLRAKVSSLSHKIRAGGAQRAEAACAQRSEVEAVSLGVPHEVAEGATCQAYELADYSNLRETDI
The description is as above. Conditions: [125I]-HEAT 50 pM, 1 hour room temperature.
Description: as §1, §2, §3, §4, §5

Where only a bound is given, the exact number is not on record here.

Turning to `COc1ccc(N2C(=O)c3ccc(C(=O)NCC(O)CN4CCN(c5ccccc5OC(C)C)CC4)cc3C2=O)cc1` (centres unmarked) [Compound 55], the results for the IC50 in assay [1] and in assay [2] were over 2 µM and 0.051 µM, respectively.
